{
  "source": "ChEMBL document CHEMBL3396969",
  "about": "“Reemergence of chloroquine (CQ) analogs as multi-targeting antimalarial agents: a review” (Eur J Med Chem, 2015)",
  "key": {"[1]": {"tested_on": "Plasmodium falciparum", "assay": "Antimicrobial activity against chloroquine-sensitive Plasmodium falciparum 3D7 infected in human erythrocytes after 72 hrs by SYBR green I fluorescence-based method", "assay_type": "functional, organism-based", "settings": "3D7, 72 h"}, "[2]": {"tested_on": "Plasmodium falciparum", "assay": "Antimicrobial activity against chloroquine/SP-resistant Plasmodium falciparum W2 infected in human erythrocytes after 72 hrs by SYBR green I fluorescence-based method", "assay_type": "functional, organism-based", "settings": "W2, 72 h"}, "[3]": {"tested_on": "Plasmodium falciparum", "assay": "Antimicrobial activity against Plasmodium falciparum Cam6 infected in human erythrocytes after 72 hrs by SYBR green I fluorescence-based method", "assay_type": "functional, organism-based", "settings": "Cam6, 72 h"}, "[4]": {"tested_on": "Plasmodium falciparum", "assay": "Antimicrobial activity against Plasmodium falciparum Thai6 infected in human erythrocytes after 72 hrs by SYBR green I fluorescence-based method", "assay_type": "functional, organism-based", "settings": "Thai6, 72 h"}, "[5]": {"tested_on": "Plasmodium falciparum", "assay": "Antimicrobial activity against Mq-resistant Plasmodium falciparum D6 infected in human erythrocytes after 72 hrs by SYBR green I fluorescence-based method", "assay_type": "functional, organism-based", "settings": "D6, 72 h"}, "[6]": {"tested_on": "Plasmodium falciparum", "assay": "Antimicrobial activity against chloroquine/MQ/atrovaquone-resistant Plasmodium falciparum TM90C2B infected in human erythrocytes after 72 hrs by SYBR green I fluorescence-based method", "assay_type": "functional, organism-based"}, "[7]": {"assay": "Inhibition of beta-hematin formation", "assay_type": "physicochemical"}, "[8]": {"tested_on": "Plasmodium falciparum", "assay": "Antimicrobial activity against chloroquine-resistant Plasmodium falciparum W2 infected in human erythrocytes assessed as incorporation of [3H]-hypoxanthine by beta counting analysis", "assay_type": "functional, organism-based"}, "[9]": {"tested_on": "Plasmodium falciparum", "assay": "Antimicrobial activity against chloroquine-resistant Plasmodium falciparum K1", "assay_type": "functional, organism-based"}, "[10]": {"tested_on": "Plasmodium falciparum", "assay": "Antimicrobial activity against Plasmodium falciparum Dd2", "assay_type": "functional"}, "[11]": {"tested_on": "Plasmodium falciparum", "assay": "Antimicrobial activity against chloroquine-sensitive Plasmodium falciparum 3D7", "assay_type": "functional, organism-based"}, "[12]": {"tested_on": "Plasmodium falciparum", "assay": "Antimicrobial activity against Plasmodium falciparum 7G8 infected in human erythrocytes after 72 hrs by SYBR green I fluorescence-based method", "assay_type": "functional, cell-based", "settings": "7G8, 72 h"}, "[13]": {"tested_on": "Plasmodium falciparum", "assay": "Antimicrobial activity against Plasmodium falciparum D6 infected in human erythrocytes after 72 hrs by SYBR green I fluorescence-based method", "assay_type": "functional, organism-based", "settings": "D6, 72 h"}, "[14]": {"tested_on": "Plasmodium falciparum", "assay": "Antimicrobial activity against Plasmodium falciparum Dd2 infected in human erythrocytes after 72 hrs by SYBR green I fluorescence-based method", "assay_type": "functional, cell-based", "settings": "Dd2, 72 h"}},
  "data": [
    {"smiles": "CC(C)(N)CNc1ccnc2cc(Cl)ccc12", "values": [
      {"measurement": "IC50", "setting": "[1]", "value": 5.52, "unit": "nM"},
      {"measurement": "IC50", "setting": "[2]", "value": 5.52, "unit": "nM"},
      {"measurement": "IC50", "setting": "[3]", "value": 5.52, "unit": "nM"},
      {"measurement": "IC50", "setting": "[4]", "value": 5.52, "unit": "nM"},
      {"measurement": "IC50", "setting": "[5]", "value": 5.52, "unit": "nM"},
      {"measurement": "IC50", "setting": "[6]", "value": 5.52, "unit": "nM"}
    ]},
    {"smiles": "CCN(CC)CCCC(C)Nc1ccnc2cc(Cl)ccc12", "note": "(stereo not drawn) [CHLOROQUINE]", "values": [
      {"measurement": "IC50", "setting": "[7]", "value": 27900, "unit": "nM"}
    ]},
    {"smiles": "NCCNCCNc1ccnc2cc(Cl)ccc12", "values": [
      {"measurement": "IC50", "setting": "[8]", "value": 60, "unit": "nM"}
    ]},
    {"smiles": "COc1cc(NC(C)CCCNc2ccnc3cc(Cl)ccc23)c2ncccc2c1", "note": "(stereo not drawn)", "values": [
      {"measurement": "IC50", "setting": "[9]", "value": 80, "unit": "nM"},
      {"measurement": "IC50", "setting": "[10]", "value": 80, "unit": "nM"},
      {"measurement": "IC50", "setting": "[11]", "value": 80, "unit": "nM"}
    ]},
    {"smiles": "CN(C)C(C)(C)CNc1ccnc2cc(Cl)ccc12", "values": [
      {"measurement": "IC50", "setting": "[1]", "value": 5.52, "unit": "nM"},
      {"measurement": "IC50", "setting": "[2]", "value": 5.52, "unit": "nM"},
      {"measurement": "IC50", "setting": "[3]", "value": 5.52, "unit": "nM"},
      {"measurement": "IC50", "setting": "[4]", "value": 5.52, "unit": "nM"},
      {"measurement": "IC50", "setting": "[5]", "value": 5.52, "unit": "nM"},
      {"measurement": "IC50", "setting": "[6]", "value": 5.52, "unit": "nM"}
    ]},
    {"smiles": "CCN(CC)CCNc1c(C)cnc2cc(Cl)ccc12", "values": [
      {"measurement": "IC50", "setting": "[12]", "value": 0.9, "unit": "nM"},
      {"measurement": "IC50", "setting": "[13]", "value": 0.9, "unit": "nM"},
      {"measurement": "IC50", "setting": "[14]", "value": 0.9, "unit": "nM"}
    ]},
    {"smiles": "COc1cc(NC(C)CCCN)c2ncccc2c1", "note": "(stereo not drawn) [PRIMAQUINE]", "values": [
      {"measurement": "IC50", "setting": "[9]", "value": 460, "unit": "nM"},
      {"measurement": "IC50", "setting": "[10]", "value": 460, "unit": "nM"},
      {"measurement": "IC50", "setting": "[11]", "value": 460, "unit": "nM"}
    ]}
  ]
}
